Literature values, collected in PMC10842190 (ACS sensors, 2023).

What was measured:
[1] = tested on: damaged collagen triple helices

Compound | Toxicity to human cells (human cells) | Annealing to damaged collagen triple helices [1]
O=C(O)[C@@H]1C[C@H](F)CN1 [H-flp-OH, (2S,4S)-4-fluoroproline] | not toxic | 
(Gly-Ser)2-Gly-(flp-Hyp-Gly)7 |  | can anneal
(Gly-Ser)2-Gly-(Hyp-flp-Gly)7 |  | cannot anneal
